Experimental data: US11339171B2, “MDM2 inhibitors” (Gan & Lee Pharmaceuticals, priority 2017, dated 2022)

Columns and labels:
[1] = tested on: human osteosarcoma cell line SJSA-1; assay: Inhibition of proliferation of human osteosarcoma cell line SJSA-1 (DAPI staining, In Cell Analyzer); conditions: for IC50: Homo sapiens, SJSA-1, 72 h, read-out: IC50 (nM), inhibitory activity on proliferation of human osteosarcoma cell line SJSA-1, SJSA-1, incubated 72 h; for inhibitory effect on human osteosarcoma cell line SJSA-1 compared with positive control compound HDM201: labels are Example numbers, the compounds with S-configuration are meant
[2] = target: T1, MDM2 (Homo sapiens, UniProt Q00987); assay: Inhibition test of MDM2-P53 (GST-MDM2, Biotin-P53, Anti-GST-Tb, SA-XL665); assay type: binding; conditions: for inhibitory effect on MDM2 compared with positive control compound HDM201: labels are Example numbers, the compounds with S-configuration are meant
T1 construct: made in house
How it was run: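 HTRF-type assay using 4 nM GST-MDM2 (final), Biotin-P53, SA-XL665 and anti-GST-Tb in PBS with 0.1% BSA, 5 mM DTT and 1 mM AEBSF. Compounds in 5-fold serial dilutions over twelve points; incubation 90 min at 25° C with shaking before plate-reader read-out.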

T1 sequence (Q00987 whole entry): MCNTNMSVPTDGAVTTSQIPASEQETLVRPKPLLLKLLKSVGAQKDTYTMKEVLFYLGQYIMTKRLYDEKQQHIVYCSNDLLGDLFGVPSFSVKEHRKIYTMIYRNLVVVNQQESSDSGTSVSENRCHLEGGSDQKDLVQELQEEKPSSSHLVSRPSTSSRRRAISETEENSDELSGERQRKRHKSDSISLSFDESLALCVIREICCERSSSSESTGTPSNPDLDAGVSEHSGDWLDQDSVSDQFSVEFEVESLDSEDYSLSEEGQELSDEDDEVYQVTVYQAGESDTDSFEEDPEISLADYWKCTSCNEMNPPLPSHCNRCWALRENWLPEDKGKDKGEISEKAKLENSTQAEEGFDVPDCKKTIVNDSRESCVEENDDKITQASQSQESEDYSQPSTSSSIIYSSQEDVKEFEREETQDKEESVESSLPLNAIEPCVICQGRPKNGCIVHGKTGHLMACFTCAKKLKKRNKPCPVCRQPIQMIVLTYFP

Row | SMILES | IC50 [1] [nM] | IC50 [2] [nM] | inhibitory effect on human osteosarcoma cell line SJSA-1 compared with positive control compound HDM201 [1] | inhibitory effect on MDM2 compared with positive control compound HDM201 [2]
1 | COc1nc(C2CC2)ncc1-c1nc2c(n1C(C)C)[C@@]1(C(=O)Nc3cc(Cl)ccc31)N(c1cc(F)cc(Cl)c1)C2=O [Example S-174, (S)-6-chloro-5′-(3-chloro-5-fluorophenyl)-2′-(2-cyclopropyl-4-methoxypyrimidin-5-yl)-3′-isopropyl-3′H-spiro[dihydroindole-3,4′-pyrrolo[3,4-d]imidazole]-2,6′(5′H)-dione] | 93.5 | 4.12 |  | 
2 | CCOc1ncc(-c2nc3c(n2C(C)C)[C@]2(C(=O)Nc4cc(Cl)ccc42)N(c2cc(Cl)ccc2C)C3=O)c(OC)n1 [Example R-127, (R)-6-chloro-5′-(5-chloro-2-methylphenyl)-2′-(2-ethoxy-4-methoxypyrimidin-5-yl)-3′-isopropyl-3′H-spiro[dihydroindole-3,4′-pyrrolo[3,4-d]imidazole]-2,6′(5′H)-dione] | 1570 | 91 |  | 
3 | COc1nc(OC(C)C)ncc1-c1nc2c(n1C(C)C)[C@@]1(C(=O)Nc3cc(Cl)ccc31)N(c1cccc(Cl)c1)C2=O [Example S-124, (S)-6-chloro-5′-(3-chlorophenyl)-2′-(2-isopropoxy-4-methoxypyrimidin-5-yl)-3′-isopropyl-3′H-spiro[dihydroindole-3,4′-pyrrolo[3,4-d]imidazole]-2,6′(5′H)-dione] | 129 | 2.91 |  | 
4 | COc1nc(OCCF)ncc1-c1nc2c(n1C(C)C)[C@@]1(C(=O)Nc3cc(Cl)ccc31)N(c1cc(Cl)cnc1C)C2=O [Example S-170, (S)-6-chloro-5′-(5-chloro-2-methylpyridin-3-yl)-2′-(2-(2-fluoroethoxy)-4-methoxypyrimidin-5-yl)-3′-isopropyl-3′H-spiro[dihydroindole-3,4′-pyrrolo[3,4-d]imidazole]-2,6′(5′H)-dione] | 131 | 1.86 |  | 
5 | COc1cc(OC)c(-c2nc3c(n2C(C)C)[C@@]2(C(=O)Nc4cc(Cl)ccc42)N(c2cc(F)cc(Cl)c2)C3=O)cn1 [Example S-175, (S)-6-chloro-5′-(3-chloro-5-fluorophenyl)-2′-(4,6-dimethoxypyridin-3-yl)-3′-isopropyl-3′H-spiro[dihydroindole-3,4′-pyrrolo[3,4-d]imidazole]-2,6′(5′H)-dione] | 49.2 | 1.96 |  | 
6 | Cc1ccc(Cl)cc1N1C(=O)c2nc(-c3ccccc3OC(C)C)n(C(C)C)c2[C@@]12C(=O)Nc1cc(Cl)ccc12 [Example S-34, (S)-6-chloro-5′-(5-chloro-2-methylphenyl)-2′-(2-isopropoxyphenyl)-3′-isopropyl-3′H-spiro[dihydroindole-3,4′-pyrrolo[3,4-d]imidazole]-2,6′(5′H)-dione] | 619 | 139 |  | 
7 | COc1cc(C#N)ccc1-c1nc2c(n1C(C)C)[C@@]1(C(=O)Nc3cc(Cl)ccc31)N(c1cccc(Cl)c1)C2=O [Example S-128, (S)-4-(6-chloro-5′-(3-chlorophenyl)-3′-isopropyl-2,6′-dioxo-5′,6′-dihydro-3′H-spiro[dihydroindole-3,4′-pyrrolo[3,4-d]imidazole]-2′-yl)-3-methoxybenzonitrile] | 145 | 1.09 |  | 
8 | COc1cc(N(C)C)c(F)cc1-c1nc2c(n1C(C)C)[C@@]1(C(=O)Nc3cc(Cl)ccc31)N(c1cc(Cl)ccc1C)C2=O [Example S-78] | 7.88 | 1.42 |  | 
9 | COc1ccc(C(=O)N(C)C)cc1-c1nc2c(n1C(C)C)[C@]1(C(=O)Nc3cc(Cl)ccc31)N(c1cc(Cl)ccc1C)C2=O [Example R-22, (R)-3-(6-chloro-5′-(5-chloro-2-methylphenyl)-3′-isopropyl-2,6′-dioxo-5′,6′-dihydro-3′H-spiro[dihydroindole-3,4′-pyrrolo[3,4-d]imidazole]-2′-yl)-4-methoxy-N,N-dimethylbenzamide] | 6950 | 627 |  | 
10 | COc1cc(N(C)C)c(F)cc1-c1nc2c(n1C(C)C)C1(C(=O)Nc3cc(Cl)ccc31)N(c1cc(Cl)ccc1C)C2=O (centres unmarked) [Example 78] |  |  | better | better
11 | COc1cc(C(C)C)ncc1-c1nc2c(n1C(C)C)C1(C(=O)Nc3cc(Cl)ccc31)N(c1cc(Cl)ccc1C)C2=O (centres unmarked) [Example 164, 6-chloro-5′-(5-chloro-2-methylphenyl)-3′-isopropyl-2′-(6-isopropyl-4-methoxypyridin-3-yl)-3′H-spiro[dihydroindole-3,4′-pyrrolo[3,4-d]imidazole]-2,6′(5′H)-dione] |  |  | better | better
12 | COc1cc(CN(C)C)ccc1-c1nc2c(n1C(C)C)[C@]1(C(=O)Nc3cc(Cl)ccc31)N(c1cc(Cl)ccc1C)C2=O [Example R-47, (R)-6-chloro-5′-(5-chloro-2-methylphenyl)-2′-(4-((dimethylamino)methyl)-2-methoxyphenyl)-3′-isopropyl-3′H-spiro[dihydroindole-3,4′-pyrrolo[3,4-d]imidazole]-2,6′(5′H)-dione] | 3850 | 210 |  | 
13 | CCN(C)c1ccc(-c2nc3c(n2C(C)C)[C@@]2(C(=O)Nc4cc(Cl)ccc42)N(c2cc(Cl)ccc2C)C3=O)c(OC)c1 [Example S-99, (S)-6-chloro-5′-(5-chloro-2-methylphenyl)-2′-(4-(ethyl(methyl)amino)-2-methoxyphenyl)-3′-isopropyl-3′H-spiro[dihydroindole-3,4′-pyrrolo[3,4-d]imidazole]-2,6′(5′H)-dione] | 34.2 | 2.56 |  | 
14 | COc1nc(OC(C)C)ncc1-c1nc2c(n1C(C)C)[C@]1(C(=O)Nc3cc(Cl)ccc31)N(c1cc(Cl)ccc1C)C2=O [Example R-126, (R)-6-chloro-5′-(5-chloro-2-methylphenyl)-2′-(2-isopropoxy-4-methoxypyrimidin-5-yl)-3′-isopropyl-3′H-spiro[dihydroindole-3,4′-pyrrolo[3,4-d]imidazole]-2,6′(5′H)-dione] | 1590 | 193 |  | 
15 | COc1ncc(-c2nc3c(n2C(C)C)C2(C(=O)Nc4cc(Cl)ccc42)N(c2cc(Cl)ccc2C)C3=O)c(OC)n1 (centres unmarked) [Example 2, 6-chloro-5′-(5-chloro-2-methylphenyl)-2′-(2,4-dimethoxypyrimidin-5-yl)-3′-isopropyl-3′H-spiro[dihydroindole-3,4′-pyrrolo[3,4-d]imidazole]-2,6′(5′H)-dione] |  |  | better | better
16 | COc1nc(N(C)C)ncc1-c1nc2c(n1C(C)C)C1(C(=O)Nc3cc(Cl)ccc31)N(c1cc(Cl)ccc1C)C2=O (centres unmarked) [Example 82, 6-chloro-5′-(5-chloro-2-methylphenyl)-2′-(2-(dimethylamino)-4-methoxypyrimidin-5-yl)-3′-isopropyl-3′H-spiro[dihydroindole-3,4′-pyrrolo[3,4-d]imidazole]-2,6′(5′H)-dione] |  |  | better | better
17 | COc1cc(N(C)C)ncc1-c1nc2c(n1C(C)C)[C@]1(C(=O)Nc3cc(Cl)ccc31)N(c1cc(Cl)ccc1C)C2=O [Example R-111, (R)-6-chloro-5′-(5-chloro-2-methylphenyl)-2′-(6-(dimethylamino)-4-methoxypyridin-3-yl)-3′-isopropyl-3′H-spiro[dihydroindole-3,4′-pyrrolo[3,4-d]imidazole]-2,6′ (5′H)-dione] | 561 | 110 |  | 
18 | COc1ccc(-c2nc3c(n2C(C)C)[C@@]2(C(=O)Nc4cc(Cl)ccc42)N(c2cc(Cl)cn(C)c2=O)C3=O)c(OC)c1 [Example S-39, (S)-6-chloro-5′-(5-chloro-1-methyl-2-oxo-1,2-dihydropyridin-3-yl)-2′-(2,4-dimethoxyphenyl)-3′-isopropyl-3′H-spiro[dihydroindole-3,4′-pyrrolo[3,4-d]imidazole]-2,6′(5′H)-dione] | 1180 | 3.93 |  | 
19 | COc1cc(N)c(C)cc1-c1nc2c(n1C(C)C)[C@]1(C(=O)Nc3cc(Cl)ccc31)N(c1cc(Cl)ccc1C)C2=O [Example R-74, (R)-2′-(4-amino-2-methoxy-5-methylphenyl)-6-chloro-5′-(5-chloro-2-methylphenyl)-3′-isopropyl-3′H-spiro[dihydroindole-3,4′-pyrrolo[3,4-d]imidazole]-2,6′(5′H)-dione] | 1840 | 93.4 |  | 
20 | COc1ncc(-c2nc3c(n2C(C)C)[C@]2(C(=O)Nc4cc(Cl)ccc42)N(c2cc(C)cc(Cl)c2)C3=O)c(OC)n1 [Example R-51, (R)-6-chloro-5′-(3-chloro-5-methylphenyl)-2′-(2,4-dimethoxypyrimidin-5-yl)-3′-isopropyl-3′H-spiro[dihydroindole-3,4′-pyrrolo[3,4-d]imidazole]-2,6′(5′H)-dione] | 9520 | 547 |  | 
21 | COc1ncc(-c2nc3c(n2C(C)C)[C@]2(C(=O)Nc4cc(Cl)ccc42)N(c2cccc(C)c2)C3=O)c(OC)n1 [Example R-55, (R)-6-chloro-2′-(2,4-dimethoxypyrimidin-5-yl)-3′-isopropyl-5′-(m-tolyl)-3′H-spiro[dihydroindole-3,4′-pyrrolo[3,4-d]imidazole]-2,6′(5′H)-dione] | 9940 | 437 |  | 
22 | COc1cc(OC2CC2)ncc1-c1nc2c(n1C(C)C)C1(C(=O)Nc3cc(Cl)ccc31)N(c1cc(Cl)ccc1C)C2=O (centres unmarked) [Example 110, 6-chloro-5′-(5-chloro-2-methylphenyl)-2′-(6-cyclopropoxy-4-methoxypyridin-3-yl)-3′-isopropyl-3′H-spiro[dihydroindole-3,4′-pyrrolo[3,4-d]imidazole]-2,6′(5′H)-dione] |  |  | better | better
